Results from patent US9169224B2, “Piperazinyl and piperidinyl ureas as modulators of fatty acid amide hydrolase” (Janssen Pharmaceutica NV, priority 2004, dated 2015).
Where a name gives a salt, the structure may show the parent alone.

target: FAAH (Homo sapiens (Human), UniProt O00519); experiment: Assay Method 1: FAAH assay, T84 cell homogenate, 3H-anandamide hydrolysis; format: biochemical; details: 3H-AEA tracer 200 nM, 1 h at rt
Description: T84 frozen pellets (contents of 1-4×15 cm culture dishes) were homogenized in 300 mL of FAAH assay buffer (125 mM Tris, 1 mM EDTA, 0.2% glycerol, 0.02% Triton X-100, 0.4 mM Hepes, pH 9). The assay mixture was prepared from 50 μL of the cell homogenate, 10 μL of the test compound, and 40 μL of anandamide [1-3H-ethanolamine] (^3H-AEA; Perkin-Elmer, 10.3 Ci/mmol), which was added last, for a final tracer concentration of 200 nM. The reaction mixture was incubated at rt for 1 hour (h). During the incubation, 96-well Multiscreen filter plates (catalog number MAFCNOB50; Millipore, Bedford, Mass., USA) were loaded with 25 μL of activated charcoal (Multiscreen column loader, catalog number MACL09625, Millipore) and washed once with 100 μL of MeOH. Also during the incubation, 96-well DYNEX MicroLite plates (catalog number NL510410) were loaded with 100 μL of MicroScint40 (catalog number 6013641, Packard Bioscience, Meriden, Conn., USA). After the 1 h incubation, 60 μL of the reaction mixture were transferred to the charcoal plates, which were then assembled on top of the DYNEX plates using Centrifuge Alignment Frames (catalog number MACF09604, Millipore). The unbound, labeled ethanolamine was centrifuged through to the bottom plate (5 min at 2000 rpm), which was preloaded with the scintillant, as described above. The plates were sealed and left at rt for 1 h before counting on a Hewlett Packard TopCount.

Chain of FAAH (O00519 whole entry): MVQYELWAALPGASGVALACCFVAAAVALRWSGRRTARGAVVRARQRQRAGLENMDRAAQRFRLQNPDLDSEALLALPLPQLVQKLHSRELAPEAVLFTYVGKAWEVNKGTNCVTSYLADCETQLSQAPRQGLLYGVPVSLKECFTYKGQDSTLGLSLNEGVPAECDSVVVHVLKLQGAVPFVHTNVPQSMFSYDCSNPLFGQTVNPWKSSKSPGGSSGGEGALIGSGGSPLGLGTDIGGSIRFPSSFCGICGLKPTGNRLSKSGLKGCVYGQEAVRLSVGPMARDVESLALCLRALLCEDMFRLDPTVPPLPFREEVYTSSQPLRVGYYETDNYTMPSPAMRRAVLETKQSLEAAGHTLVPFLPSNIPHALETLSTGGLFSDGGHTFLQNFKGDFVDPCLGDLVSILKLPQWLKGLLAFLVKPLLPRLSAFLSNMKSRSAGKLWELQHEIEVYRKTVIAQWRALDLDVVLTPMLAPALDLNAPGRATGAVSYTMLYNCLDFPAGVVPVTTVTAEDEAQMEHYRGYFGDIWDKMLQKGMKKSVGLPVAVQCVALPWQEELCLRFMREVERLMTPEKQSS

With `O=C(Nc1ccccc1)N1CCN(Cc2ccc3[nH]ccc3c2)CC1` [Example 43, 4-(1H-Indol-5-ylmethyl)-piperazine-1-carboxylic acid phenylamide] as the compound, how does the IC50 read?
The IC50 was 4000 nM.

`O=C(Nc1ccccc1)N1CCN(Cc2cccc(Oc3ccc(Cl)c(Cl)c3)c2)CC1` [Example 61, 4-[3-(3,4-Dichloro-phenoxy)-benzyl]-piperazine-1-carboxylic acid phenylamide] was tested. Which IC50 did it give?
Its IC50 is 20 nM.

For `O=C(Nc1ccccc1)N1CCN(Cc2cccc3ccccc23)CC1` [Example 40, 4-Naphthalen-1-ylmethyl-piperazine-1-carboxylic acid phenylamide], which IC50 is on record?
The IC50 was 1100 nM.

With `O=C(Nc1ccccc1)N1CCN(Cc2cccnc2)CC1` [Example 47, 4-Pyridin-3-ylmethyl-piperazine-1-carboxylic acid phenylamide] as the compound, how does the IC50 read?
The IC50 was greater than 10000 nM.

How did the IC50 turn out when `O=C(Nc1ccncc1)N1CCN(Cc2ccc(Br)c(Br)c2)CC1` [Example 116, 4-(3,4-Dibromo-benzyl)-piperazine-1-carboxylic acid pyridin-4-ylamide] was run?
Its IC50 is 240 nM.

For `O=C(Nc1ccccc1)N1CCN(Cc2ccc(Br)cc2)CC1` [Example 27, 4-(4-Bromo-benzyl)-piperazine-1-carboxylic acid phenylamide], which IC50 is on record?
Its IC50 is 69 nM.

`O=C(Nc1ccccn1)N1CCN(Cc2ccc(Br)c(Br)c2)CC1` [Example 117, 4-(3,4-Dibromo-benzyl)-piperazine-1-carboxylic acid pyridin-2-ylamide] was tested. Which IC50 did it give?
The IC50 was 360 nM.

`O=C(Nc1ccccc1)N1CCN(Cc2cccc(Oc3cc4ccccc4c4ccccc34)c2)CC1` [Example 132, 4-[3-(Phenanthren-9-yloxy)-benzyl]-piperazine-1-carboxylic acid phenylamide] was tested. Which IC50 did it give?
Its IC50 is 3000 nM.

How did the IC50 turn out when `O=C(Nc1ccccc1)N1CCN(Cc2ccc(I)cc2)CC1` [Example 24, 4-(4-Iodo-benzyl)-piperazine-1-carboxylic acid phenylamide] was run?
Its IC50 is 52 nM.

Which IC50 does the source give for `O=C(Nc1ccccc1)N1CCN(CCCc2ccccc2)CC1` [Example I, 4-(3-Phenyl-propyl)-piperazine-1-carboxylic acid phenylamide, reference compound] here?
The IC50 was 1700 nM.

For `COc1ccc2cc(CN3CCN(C(=O)Nc4ccccc4)CC3)ccc2c1` [Example 66, 4-(6-Methoxy-naphthalen-2-ylmethyl)-piperazine-1-carboxylic acid phenylamide], which IC50 is on record?
Its IC50 is 1600 nM.

With `O=C(Nc1ccccc1)N1CCN(Cc2cnc3ccc(Cl)cc3c2)CC1` [Example 69, 4-(6-Chloro-quinolin-3-ylmethyl)-piperazine-1-carboxylic acid phenylamide] as the compound, how does the IC50 read?
Its IC50 is 23 nM.

Which IC50 does the source give for `O=C(Nc1ccccc1)N1CCN(Cc2cc3ccccc3s2)CC1` [Example 20, 4-Benzo[b]thiophen-2-ylmethyl-piperazine-1-carboxylic acid phenylamide] here?
Its IC50 is 19 nM.

How did the IC50 turn out when `O=C(Nc1ccccc1)N1CCN(Cc2ccnc3ccccc23)CC1` [Example 50, 4-Quinolin-4-ylmethyl-piperazine-1-carboxylic acid phenylamide] was run?
Its IC50 is 3000 nM.

For `O=C(Nc1ccccc1)N1CCN(Cc2cccc(Oc3ccc4c(c3)OCO4)c2)CC1` [Example 136, 4-[3-(Benzo[1,3]dioxol-5-yloxy)-benzyl]-piperazine-1-carboxylic acid phenylamide], which IC50 is on record?
Its IC50 is 67 nM.

For `O=C(Nc1ccccc1Cl)N1CCN(Cc2ccc(Br)c(Br)c2)CC1` [Example 93, 4-(3,4-Dibromo-benzyl)-piperazine-1-carboxylic acid (2-chloro-phenyl)-amide], which IC50 is on record?
The IC50 was 460 nM.

`O=C(Nc1ccccc1)N1CCN(Cc2ccc3cccc(Cl)c3n2)CC1` [Example 55, 4-(8-Chloro-quinolin-2-ylmethyl)-piperazine-1-carboxylic acid phenylamide] was tested. Which IC50 did it give?
Its IC50 is 28 nM.

With `Cc1ccc(CN2CCN(C(=O)Nc3ccccc3)CC2)cc1` [Example E, 4-(4-Methyl-benzyl)-piperazine-1-carboxylic acid phenylamide, reference compound] as the compound, how does the IC50 read?
The IC50 was 1300 nM.

With `COC(=O)c1ccc(Oc2cccc(CN3CCN(C(=O)Nc4ccccc4)CC3)c2)cc1` [Example 133, 4-[3-(4-Phenylcarbamoyl-piperazin-1-ylmethyl)-phenoxy]-benzoic acid methyl ester] as the compound, how does the IC50 read?
Its IC50 is 50 nM.

With `O=C(Nc1ccccc1)N1CCN(Cc2cccc(I)c2)CC1` [Example A, 4-(3-Iodo-benzyl)-piperazine-1-carboxylic acid phenylamide, reference compound] as the compound, how does the IC50 read?
The IC50 was 120 nM.

Which IC50 does the source give for `O=C(Nc1ccccc1)N1CCN(Cc2cccc3c2OCO3)CC1` [Example 51, 4-Benzo[1,3]dioxol-4-ylmethyl-piperazine-1-carboxylic acid phenylamide] here?
The IC50 was 6000 nM.

How did the IC50 turn out when `O=C(Nc1ccccc1)N1CCN(Cc2cccc(OS(=O)(=O)c3ccccc3)c2)CC1` [Example 138, Benzenesulfonic acid 3-(4-phenylcarbamoyl-piperazin-1-ylmethyl)-phenyl ester] was run?
Its IC50 is 59 nM.

How did the IC50 turn out when `Cc1cccc(NC(=O)N2CCN(Cc3ccc(Br)c(Br)c3)CC2)c1` [Example 88, 4-(3,4-Dibromo-benzyl)-piperazine-1-carboxylic acid m-tolylamide] was run?
Its IC50 is 100 nM.

For `CCCOc1ccc(CN2CCN(C(=O)Nc3ccccc3)CC2)cc1` [Example 123, 4-(4-Propoxy-benzyl)-piperazine-1-carboxylic acid phenylamide], which IC50 is on record?
Its IC50 is 1500 nM.

How did the IC50 turn out when `Cc1ccc(NC(=O)N2CCN(Cc3ccc(Br)c(Br)c3)CC2)cc1` [Example 94, 4-(3,4-Dibromo-benzyl)-piperazine-1-carboxylic acid p-tolylamide] was run?
Its IC50 is 470 nM.

Which IC50 does the source give for `COc1ccccc1NC(=O)N1CCN(Cc2cnc3ccccc3c2)CC1` [Example 102, 4-Quinolin-3-ylmethyl-piperazine-1-carboxylic acid (2-methoxy-phenyl)-amide] here?
Its IC50 is 540 nM.

Which IC50 does the source give for `O=C(Nc1ccccc1)N1CCN(Cc2ccc3c(c2)CCO3)CC1` [Example 38, 4-(2,3-Dihydro-benzofuran-5-ylmethyl)-piperazine-1-carboxylic acid phenylamide] here?
The IC50 was 620 nM.

For `O=C(Nc1cccc(Cl)c1)N1CCN(Cc2ccc(Br)c(Br)c2)CC1` [Example 92, 4-(3,4-Dibromo-benzyl)-piperazine-1-carboxylic acid (3-chloro-phenyl)-amide], which IC50 is on record?
Its IC50 is 240 nM.

For `O=C(Nc1ccccc1)N1CCN(CCc2ccccc2)CC1` [Example F, 4-Phenethyl-piperazine-1-carboxylic acid phenylamide, reference compound], which IC50 is on record?
The IC50 was greater than 10000 nM.

For `O=C(Nc1ccccc1)N1CCN(Cc2cccc(Oc3ccccc3)c2)CC1` [Example 28, 4-(3-Phenoxy-benzyl)-piperazine-1-carboxylic acid phenylamide], which IC50 is on record?
Its IC50 is 80 nM.

How did the IC50 turn out when `O=C(Nc1ccccc1)N1CCN(Cc2cccc(OCCCN3CCCCC3)c2)CC1` [Example 128, 4-[3-(3-Piperidin-1-yl-propoxy)-benzyl]-piperazine-1-carboxylic acid phenylamide] was run?
The IC50 was 2000 nM.

For `Cc1ccc(NC(=O)N2CCC(Cc3ccccc3)CC2)cc1` [Example 113, 4-Benzyl-piperidine-1-carboxylic acid p-tolylamide], which IC50 is on record?
Its IC50 is 8000 nM.

Which IC50 does the source give for `CS(=O)(=O)c1ccc(Oc2cccc(CN3CCN(C(=O)Nc4ccccc4)CC3)c2)cc1` [Example 134, 4-[3-(4-Methanesulfonyl-phenoxy)-benzyl]-piperazine-1-carboxylic acid phenylamide] here?
Its IC50 is 65 nM.

With `COc1ccc(CN2CCN(C(=O)Nc3ccccc3)CC2)cc1OC` [Example 44, 4-(3,4-Dimethoxy-benzyl)-piperazine-1-carboxylic acid phenylamide] as the compound, how does the IC50 read?
The IC50 was 4000 nM.

For `O=C(Nc1ccccc1)N1CCN(Cc2ccc3c(c2)OCCO3)CC1` [Example 35, 4-(2,3-Dihydro-benzo[1,4]dioxin-6-ylmethyl)-piperazine-1-carboxylic acid phenylamide], which IC50 is on record?
The IC50 was 460 nM.

How did the IC50 turn out when `O=C(Nc1ccccc1Cl)N1CCN(Cc2cnc3ccccc3c2)CC1` [Example 99, 4-Quinolin-3-ylmethyl-piperazine-1-carboxylic acid (2-chloro-phenyl)-amide] was run?
The IC50 was 1600 nM.

With `COc1cccc(Oc2cccc(CN3CCN(C(=O)Nc4ccccc4)CC3)c2)c1` [Example 135, 4-[3-(3-Methoxy-phenoxy)-benzyl]-piperazine-1-carboxylic acid phenylamide] as the compound, how does the IC50 read?
Its IC50 is 83 nM.

With `O=C(Nc1ccccc1)N1CCN(Cc2ccc(OCc3ccccc3)cc2)CC1` [Example 77, 4-(4-Benzyloxy-benzyl)-piperazine-1-carboxylic acid phenylamide] as the compound, how does the IC50 read?
Its IC50 is 32 nM.

Which IC50 does the source give for `Cc1ccc(NC(=O)N2CCN(Cc3cnc4ccccc4c3)CC2)cc1` [Example 104, 4-Quinolin-3-ylmethyl-piperazine-1-carboxylic acid p-tolylamide] here?
Its IC50 is 690 nM.

How did the IC50 turn out when `O=C(Nc1ccccc1)N1CCN(Cc2ccc3c(c2)Cc2ccccc2-3)CC1` [Example 79, 4-(9H-Fluoren-2-ylmethyl)-piperazine-1-carboxylic acid phenylamide] was run?
The IC50 was 8000 nM.

`O=C(Nc1ccccc1)N1CCN(Cc2cccc(Br)c2)CC1` [Example C, 4-(3-Bromo-benzyl)-piperazine-1-carboxylic acid phenylamide, reference compound] was tested. Which IC50 did it give?
Its IC50 is 280 nM.

same assay, conditions: 3H-AEA tracer 200 nM, 1 h at rt, dihydrochloride

`O=C(Nc1ccccc1)N1CCN(Cc2ccc3ccccc3n2)CC1` [Example 163, 4-Quinolin-2-ylmethyl-piperazine-1-carboxylic acid phenylamide dihydrochloride] was tested. Which IC50 did it give?
Its IC50 is 23 nM.
